Our source for the IC50 values is patent EP4768484A1, “HETEROCYCLIC FUSED RING COMPOUND, AND COMPOSITION AND USE THEREOF” (Shenzhen TargetRx, Inc., priority 2023, dated 2025).

Common to all, as to type: cell-based
Assay [1] concerns the target T1, Ba/F3 BCR-ABL1 WT (Homo sapiens, UniProt P00519+P11274).
T1 construct: BCR (N-terminal fusion partner of the oncoprotein); expressed in transfected cells; host or cells: Ba/F3 (lentiviral transduction, monoclonal line)
The assay is described as follows: Cell growth inhibitory activity assay (CellTiter-Glo), Ba/F3 BCR-ABL1 WT cells. The following applies: 72 h, CTG cell viability. Summed up:
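Ba/F3 parental cells or Ba/F3 lines lentivirally transduced with WT or mutant BCR-ABL1, seeded overnight then exposed to serially diluted compound 72 h at 37 °C, 5% CO2. Viability by CellTiter-Glo ATP luminescence with a T0 plate; 0.5% DMSO controls; IC50 from four-parameter nonlinear fit.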
Background: ATP-based viability assays read luminescence as a measure of living cells.

The subject of assay [2] is Ba/F3 parental cells. The experiment in a line: Cell growth inhibitory activity assay (CellTiter-Glo), Ba/F3 parental cells. The following applies: Mus musculus, BaF3, 72 h, CTG cell viability, read-out: IC50 Ba/F3 BCR-ABL1 Parental. The method, boiled down:
(§1)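 Luminescent ATP read-out (CellTiter-Glo) after 72 h compound exposure at 37 °C, 5% CO2. Cells: monoclonal Ba/F3 lentivirally engineered with mutant BCR-ABL1, or parental Ba/F3. A T0 plate read the day after seeding; 0.5% DMSO wells as uninhibited growth control. IC50 via variable-slope logistic fit of % inhibition.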

The target of assay [3] is T2, Ba/F3 BCR-ABL1 E255V/T315I (Homo sapiens, UniProt P00519+P11274, E255V/T315I).
T2 construct: BCR (N-terminal fusion partner of the oncoprotein); expressed in transfected cells; host or cells: Ba/F3 (lentiviral transduction, monoclonal line)
The experiment in a line: Cell growth inhibitory activity assay (CellTiter-Glo), Ba/F3 BCR-ABL1 E255V/T315I cells. The following applies: 72 h, CTG cell viability. As to the method:
(§2) In this assay, the Celltiter-Glo (CTG) kit provided by Promega was used, and it is a homogeneous cell viability assay method. The cell viability of cultured cells was measured by quantifying ATP. K562 cells were purchased from Nanjing Kebai, product number CBP60529; Ba/F3 parental cells were purchased from RIKEN BRC, product number RCB0805; other cells containing BCR-ABL1 WT, BCR-ABL1 T315I, BCR-ABL1 T315M, BCR-ABL1 Y253H/E255K, BCR-ABL1 E255V/T3151, BCR-ABL1 A424T, BCR-ABL1 A337V, BCR-ABL1 P465S, BCR-ABL1 V468F, and BCR-ABL1 I502L were all monoclonal engineered cell lines obtained by transducting Ba/F3 parental cells with the lentivirus plasmids containing WT or corresponding mutated BCR-ABL1.
(§3) The steps of cell viability assay are as follows: • a) Cells in logarithmic growth phase were collected. Cell suspension was prepared and the cells were counted. Concentration of the cells was calculated. • b) The cell suspension was diluted to the required concentration and then added to the middle wells of a 96-well plate, and PBS was added to the edge wells. The wells with no cells and only culture medium were used as blank controls. • c) In addition to the cell plate used for compound analysis, another 96-well plate was prepared as a T0 plate, and 3-6 blank wells and 3-6 cell wells were added. The next day, CTG was used to test the cell viability as the T0 viability value of the cells. • d) The cell plate was incubated at 37 °C in a 5% CO2 incubator overnight. • e) The next day, each concentration of a compound subjected to a gradient dilution was added, and the cell plate was incubated at 37 °C in a 5% CO2 incubator for 72 h. The wells with no compound and only 0.5% DMSO were used as positive controls for cell growth. • f) CTG reagent (CellTiter-Glo kit) was added according to the manufacturer's instructions to test the cell viability value. • g) The plate was read using Biotek cytation3.0 microplate reader and the data were exported. • h) IC50 was calculated using GraphPad Prism 7.0 software.
(§4) The IC50 (half-maximal inhibitory concentration) of the compound was obtained using the following nonlinear fitting formula: Y = Bottom + (Top−Bottom)/(1+10^(∧)((LogIC50−X)*HillSlope)) [formula] • X: Log value of the compound concentration • Y: Inhibition rate (% inhibition) • Top: Maximum response • Bottom: Baseline response • HillSlope: Slope of the curve
(§5) The formula for calculating cell inhibition rate (inhibition rate %) was: [formula]

The target of assay [4] is T3, Ba/F3 BCR-ABL1 V468F (Homo sapiens, UniProt P00519+P11274, V468F).
T3 construct: BCR (N-terminal fusion partner of the oncoprotein); expressed in transfected cells; host or cells: Ba/F3 (lentiviral transduction, monoclonal line)
The experiment in a line: Cell growth inhibitory activity assay (CellTiter-Glo), Ba/F3 BCR-ABL1 V468F cells. The following applies: 72 h, CTG cell viability. As to the method: as §2, §3, §4, §5

Assay [5] relates to K562 cells. The experiment in a line: Cell growth inhibitory activity assay (CellTiter-Glo), K562 cells. Particulars: Homo sapiens, 72 h, CTG cell viability. The method, boiled down:
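K562 cells in logarithmic growth were counted, diluted and plated in 96-well plates, with medium-only blanks and a separate T0 plate read by CTG the following day. After overnight incubation, graded compound concentrations were added for 72 h, with 0.5% DMSO wells as growth controls. Luminescence was read on a Biotek cytation3.0, and IC50 came from nonlinear fitting in GraphPad Prism 7.0.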

The target in assay [6] is T4, Ba/F3 BCR-ABL1 Y253H/E255K (Homo sapiens, UniProt P00519+P11274, E255K/Y253H).
T4 construct: BCR (N-terminal fusion partner of the oncoprotein); expressed in transfected cells; host or cells: Ba/F3 (lentiviral transduction, monoclonal line)
The experiment in a line: Cell growth inhibitory activity assay (CellTiter-Glo), Ba/F3 BCR-ABL1 Y253H/E255K cells. Particulars: 72 h, CTG cell viability. As to the method: as §2, §3, §4, §5

Assay [7] addresses T5, Ba/F3 BCR-ABL1 T315I (Homo sapiens, UniProt P00519+P11274, T315I).
T5 construct: BCR (N-terminal fusion partner of the oncoprotein); expressed in transfected cells; host or cells: Ba/F3 (lentiviral transduction, monoclonal line)
The experiment in a line: Cell growth inhibitory activity assay (CellTiter-Glo), Ba/F3 BCR-ABL1 T315I cells. Particulars: 72 h, CTG cell viability. Summed up: as §1

Assay [8] deals with T6, Ba/F3 BCR-ABL1 A424T (Homo sapiens, UniProt P00519+P11274, A424T).
T6 construct: BCR (N-terminal fusion partner of the oncoprotein); expressed in transfected cells; host or cells: Ba/F3 (lentiviral transduction, monoclonal line)
The experiment in a line: Cell growth inhibitory activity assay (CellTiter-Glo), Ba/F3 BCR-ABL1 A424T cells. The following applies: 72 h, CTG cell viability. As to the method:
as §2, §3, §4, §5

In assay [9] the target is T7, Ba/F3 BCR-ABL1 T315M (Homo sapiens, UniProt P00519+P11274, T315M).
T7 construct: BCR (N-terminal fusion partner of the oncoprotein); expressed in transfected cells; host or cells: Ba/F3 (lentiviral transduction, monoclonal line)
The experiment in a line: Cell growth inhibitory activity assay (CellTiter-Glo), Ba/F3 BCR-ABL1 T315M cells. Particulars: 72 h, CTG cell viability. As to the method:
as §2, §3, §4, §5

In the case of `CC(=O)NC1CCC2c3cc(C(=O)Nc4ccc(OC(F)(F)Cl)cc4)cc(-c4cnc5c(c4)C(=O)N(C)C5)c3N(C(C)C)C12` (racemic) [T-11, 3-acetamido-N-(4-(chlorodifluoromethoxy)phenyl)-4-isopropyl-5-(6-methyl-5-oxo-6,7-dihydro-5H-pyrrolo[3,4-b]pyridin-3-yl)-1,2,3,3a,4,8b-hexahydrocyclopenta[b]indole-7-carboxamide], the IC50 was not above 5 nM in assay [1]; more than 1000 nM in [2]; 50 to 1000 nM in [3]; more than 1000 nM in assay [4]; not above 5 nM in assay [5]; 50 to 1000 nM in assay [6]. Further, the IC50 in [7] is 50 to 1000 nM; in assay [8], 50 to 1000 nM; in [9] it was more than 1000 nM.

Take `C[C@@H]1COCc2nc3cc(C(=O)Nc4ccc(OC(F)(F)Cl)cc4)cc(-c4cnc5c(c4)C(=O)N(C4CC4)C5)c3n21` [T-25, (R)-N-(4-(chlorodifluoromethoxy)phenyl)-6-(6-cyclopropyl-5-oxo-6,7-dihydro-5H-pyrrolo[3,4-b]pyridin-3-yl)-4-methyl-3,4-dihydro-1H-benzo[4,5]imidazo[2,1-c][1,4]oxazine-8-carboxamide]: the IC50 in assay [1] is not above 5 nM; in [2], more than 1000 nM; in assay [3], 5 to 50 nM; in assay [5] it was not above 5 nM; in assay [6] it was 5 to 50 nM; in assay [7], 5 to 50 nM. In addition, the IC50 in assay [8] is 5 to 50 nM; in [9] it was more than 1000 nM.

With `C[C@@H]1COCc2nc3cc(C(=O)Nc4ccc(OC(F)(F)Cl)cc4)cc(-c4cnc5c(c4)-c4nn(-c6ccncn6)cc4C5)c3n21` [T-67, (R)-N-(4-(chlorodifluoromethoxy)phenyl)-4-methyl-6-(2-(pyrimidin-4-yl)-2,4-dihydropyrazolo[3',4':3,4]cyclopenta[1,2-b]pyridin-7-yl)-3,4-dihydro-1H-benzo[4,5]imidazo[2,1-c][1,4]oxazine-8-carboxamide], the IC50 was not above 5 nM in assay [1]; more than 1000 nM in [2]; not above 5 nM in [5]; not above 5 nM in [6]; not above 5 nM in [7].

As to `C[C@@H]1COCc2nc3cc(C(=O)Nc4ccc(OC(F)(F)Cl)cc4)cc(-c4cnc5c(c4)-c4nn(-c6ncc(C#N)cn6)cc4C5)c3n21` [T-78, (R)-N-(4-(chlorodifluoromethoxy)phenyl)-6-(2-(5-cyanopyrimidin-2-yl)-2,4-dihydropyrazolo[3',4':3,4]cyclopenta[1,2-b]pyridin-7-yl)-4-methyl-3,4-dihydro-1H-benzo[4,5]imidazo[2,1-c][1,4]oxazine-8-carboxamide], the IC50 in assay [1] was not above 5 nM; in assay [2] it was more than 1000 nM; in assay [3] it was not above 5 nM; in assay [5] it was not above 5 nM; in [6], not above 5 nM; in assay [7] it was not above 5 nM.

On to `C[C@@H]1COCc2nc3cc(C(=O)Nc4ccc(OC(F)(F)Cl)cc4)cc(-c4cnc5c(c4)-c4nc(N)sc4C5)c3n21` [T-114, (R)-6-(2-amino-4H-thiazolo[4',5':3,4]cyclopenta[1,2-b]pyridin-7-yl)-N-(4-(chlorodifluoromethoxy)phenyl)-4-methyl-3,4-dihydro-1H-benzo[4,5]imidazo[2,1-c][1,4]oxazine-8-carboxamide], for which the IC50 in [1] was not above 5 nM; in [2] it was more than 1000 nM; in assay [3], 50 to 1000 nM; in [5], not above 5 nM; in [6], 5 to 50 nM; in assay [7], 5 to 50 nM. Besides, in assay [9], the IC50 was more than 1000 nM.
